Publication PMC9364112, “A natural fusion of flavodiiron, rubredoxin, and rubredoxin oxidoreductase domains is a self-sufficient water-forming oxidase of Trichomonas vaginalis” (The Journal of Biological Chemistry, 2022)

Key:
Assay in all cases: LC-MS quantification of bound flavin
Type in all cases: binding
[1] = target: T1, TvFDPF2 (Trichomonas vaginalis, UniProt A2EVX8); details: co-purified cofactor, poorly occupied
T1 construct: gene TVAG_049830; full length, 871 residues, C-terminal His6 (pET30a, E. coli BL21 Star DE3); aggregation-prone; poor FAD and FMN occupancy
T1 sequence (A2EVX8 1-871): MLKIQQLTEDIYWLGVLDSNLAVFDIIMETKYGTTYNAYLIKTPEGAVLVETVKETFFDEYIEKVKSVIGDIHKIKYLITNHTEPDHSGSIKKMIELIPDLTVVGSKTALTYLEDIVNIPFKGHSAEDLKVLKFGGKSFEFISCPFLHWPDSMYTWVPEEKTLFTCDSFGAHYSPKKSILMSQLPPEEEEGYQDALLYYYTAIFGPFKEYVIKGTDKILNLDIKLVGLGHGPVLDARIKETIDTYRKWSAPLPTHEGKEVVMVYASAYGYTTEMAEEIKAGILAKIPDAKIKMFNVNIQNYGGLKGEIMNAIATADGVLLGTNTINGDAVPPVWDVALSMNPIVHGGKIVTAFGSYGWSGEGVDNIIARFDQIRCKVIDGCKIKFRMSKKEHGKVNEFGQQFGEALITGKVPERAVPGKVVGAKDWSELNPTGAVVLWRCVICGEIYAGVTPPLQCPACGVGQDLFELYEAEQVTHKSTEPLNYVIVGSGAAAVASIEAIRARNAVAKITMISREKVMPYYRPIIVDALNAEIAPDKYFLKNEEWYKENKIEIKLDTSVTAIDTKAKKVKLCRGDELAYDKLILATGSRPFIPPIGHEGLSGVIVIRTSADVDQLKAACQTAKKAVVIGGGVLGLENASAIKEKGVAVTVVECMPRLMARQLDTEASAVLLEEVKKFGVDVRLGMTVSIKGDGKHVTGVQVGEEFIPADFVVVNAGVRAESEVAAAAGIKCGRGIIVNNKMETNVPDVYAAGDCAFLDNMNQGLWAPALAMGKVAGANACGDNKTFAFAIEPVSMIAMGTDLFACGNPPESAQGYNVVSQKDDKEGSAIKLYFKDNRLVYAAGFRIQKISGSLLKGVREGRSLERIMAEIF
Excerpt: LC-MS quantification of bound flavin on TvFDPF2

[2] = target: T2, TvFDPF3 (holoTvFDPF3) (Trichomonas vaginalis, UniProt A2E972); details: co-purified cofactor, NROR domain
T2 construct: gene TVAG_121610; full length, 871 residues, C-terminal His6 (pET30a, E. coli BL21 Star DE3), ~100 kDa on SDS-PAGE; FDP-core head-to-tail dimer; holo preparation with full FAD/FMN
T2 sequence (A2E972 1-871): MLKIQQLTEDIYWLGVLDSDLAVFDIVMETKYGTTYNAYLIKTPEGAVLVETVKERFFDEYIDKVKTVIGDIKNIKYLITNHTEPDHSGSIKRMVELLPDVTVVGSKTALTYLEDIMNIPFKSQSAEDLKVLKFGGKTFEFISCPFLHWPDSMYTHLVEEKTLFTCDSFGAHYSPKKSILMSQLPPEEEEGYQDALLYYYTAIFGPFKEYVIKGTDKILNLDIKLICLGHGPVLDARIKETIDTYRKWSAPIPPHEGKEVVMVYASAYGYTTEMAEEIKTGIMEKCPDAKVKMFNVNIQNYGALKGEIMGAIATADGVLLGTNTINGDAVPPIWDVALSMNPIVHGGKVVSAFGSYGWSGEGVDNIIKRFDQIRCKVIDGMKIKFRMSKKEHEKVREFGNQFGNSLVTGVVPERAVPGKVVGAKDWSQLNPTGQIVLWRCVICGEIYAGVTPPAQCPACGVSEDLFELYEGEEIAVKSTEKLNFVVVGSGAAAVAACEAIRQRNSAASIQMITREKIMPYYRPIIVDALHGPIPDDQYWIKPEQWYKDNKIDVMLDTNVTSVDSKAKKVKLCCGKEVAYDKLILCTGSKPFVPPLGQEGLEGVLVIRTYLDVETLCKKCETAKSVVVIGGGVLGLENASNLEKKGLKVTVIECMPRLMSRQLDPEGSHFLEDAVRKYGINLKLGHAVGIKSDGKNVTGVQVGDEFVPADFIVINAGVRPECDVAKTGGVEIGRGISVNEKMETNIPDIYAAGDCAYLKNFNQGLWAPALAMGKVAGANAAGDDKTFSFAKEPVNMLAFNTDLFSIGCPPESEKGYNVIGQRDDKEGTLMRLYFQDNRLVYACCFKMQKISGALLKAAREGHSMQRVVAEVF
Excerpt: LC-MS quantification of bound flavin on TvFDPF3 (holoTvFDPF3)

[3] = target: T3, TvFDPF1 (Trichomonas vaginalis, UniProt A2EP06); details: co-purified cofactor
T3 construct: gene TVAG_263800; full length, 871 residues, C-terminal His6 (pET30a, E. coli BL21 Star DE3); 272 kDa by gel filtration
T3 sequence (A2EP06 1-871): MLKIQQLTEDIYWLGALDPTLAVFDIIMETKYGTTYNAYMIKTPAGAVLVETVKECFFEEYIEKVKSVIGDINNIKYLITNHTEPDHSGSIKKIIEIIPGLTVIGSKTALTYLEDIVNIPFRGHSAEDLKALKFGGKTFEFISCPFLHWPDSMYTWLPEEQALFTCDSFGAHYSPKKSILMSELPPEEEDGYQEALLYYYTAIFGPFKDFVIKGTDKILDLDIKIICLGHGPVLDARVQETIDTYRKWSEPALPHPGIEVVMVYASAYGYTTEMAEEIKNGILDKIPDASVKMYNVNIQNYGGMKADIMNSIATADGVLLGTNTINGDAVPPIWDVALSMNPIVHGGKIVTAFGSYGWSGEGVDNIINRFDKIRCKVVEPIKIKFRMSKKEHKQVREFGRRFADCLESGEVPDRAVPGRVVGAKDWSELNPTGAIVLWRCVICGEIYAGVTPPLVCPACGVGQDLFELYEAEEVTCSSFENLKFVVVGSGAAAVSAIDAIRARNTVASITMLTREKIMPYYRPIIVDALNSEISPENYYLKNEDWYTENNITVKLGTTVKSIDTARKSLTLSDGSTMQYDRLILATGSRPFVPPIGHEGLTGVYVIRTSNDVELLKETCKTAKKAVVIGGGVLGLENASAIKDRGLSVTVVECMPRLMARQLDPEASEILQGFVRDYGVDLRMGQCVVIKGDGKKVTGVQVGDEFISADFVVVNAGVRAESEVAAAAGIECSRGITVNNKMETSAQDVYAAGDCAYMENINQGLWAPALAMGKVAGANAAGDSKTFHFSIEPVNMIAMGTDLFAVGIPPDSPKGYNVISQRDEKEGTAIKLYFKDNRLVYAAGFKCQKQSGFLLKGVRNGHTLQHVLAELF
Excerpt: LC-MS quantification of bound flavin on TvFDPF1

SMILES: Cc1cc2nc3c(=O)[nH]c(=O)nc-3n(C[C@H](O)[C@H](O)[C@H](O)COP(=O)(O)OP(=O)(O)OC[C@H]3O[C@@H](n4cnc5c(N)ncnc54)[C@H](O)[C@@H]3O)c2cc1C [FAD]
- FAD per protein monomer [1]: 0.32 ± 0.05 mol per mol monomer
- FAD per protein monomer [2]: 0.94 ± 0.09 mol per mol monomer
- FAD per protein monomer [3]: 1.02 ± 0.05 mol per mol monomer
